Activity calls are given as the source filed them. The rule behind the calls is not given here.
Columns and labels:
MCF7/ADM = experiment: Antitumor activity against human MCF7/ADM cells xenografted in BALB/c mouse assessed as reduction in tumor volume at 50 mg/kg, ip measured every 2 days in presence of Adriamycin; format: functional, organism-based; conditions: time 2.0 day
[1] = Induction of apoptosis in human MCF7/ADM cells at 25 uM incubated for 24 hrs in presence of TUDCA by Annexin V-FITC/PI staining based flow cytometry analysis (reference value: 5.20%); format: functional
[2] = target: T1, von Hippel-Lindau disease tumor suppressor/Phosphatidylinositol 4,5-bisphosphate 3-kinase catalytic subunit beta isoform (Homo sapiens, UniProt P42338+P40337); experiment: PROTAC activity at PI3K-p110beta/VHL in human MCF7/ADM cells assessed as reduction in PI3K-p110beta mRNA level at 25 uM measured for 24 hrs by qRT-PCR analysis; format: cell-based
Target sequence in this assay (P40337 whole entry, looked up, canonical isoform): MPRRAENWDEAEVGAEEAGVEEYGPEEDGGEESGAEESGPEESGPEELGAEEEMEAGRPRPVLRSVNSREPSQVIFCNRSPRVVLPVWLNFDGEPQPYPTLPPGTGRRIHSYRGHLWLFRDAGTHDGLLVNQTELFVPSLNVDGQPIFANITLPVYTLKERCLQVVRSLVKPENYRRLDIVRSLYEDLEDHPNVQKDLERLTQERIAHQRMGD
Target sequence in this assay (P42338 whole entry, looked up, canonical isoform): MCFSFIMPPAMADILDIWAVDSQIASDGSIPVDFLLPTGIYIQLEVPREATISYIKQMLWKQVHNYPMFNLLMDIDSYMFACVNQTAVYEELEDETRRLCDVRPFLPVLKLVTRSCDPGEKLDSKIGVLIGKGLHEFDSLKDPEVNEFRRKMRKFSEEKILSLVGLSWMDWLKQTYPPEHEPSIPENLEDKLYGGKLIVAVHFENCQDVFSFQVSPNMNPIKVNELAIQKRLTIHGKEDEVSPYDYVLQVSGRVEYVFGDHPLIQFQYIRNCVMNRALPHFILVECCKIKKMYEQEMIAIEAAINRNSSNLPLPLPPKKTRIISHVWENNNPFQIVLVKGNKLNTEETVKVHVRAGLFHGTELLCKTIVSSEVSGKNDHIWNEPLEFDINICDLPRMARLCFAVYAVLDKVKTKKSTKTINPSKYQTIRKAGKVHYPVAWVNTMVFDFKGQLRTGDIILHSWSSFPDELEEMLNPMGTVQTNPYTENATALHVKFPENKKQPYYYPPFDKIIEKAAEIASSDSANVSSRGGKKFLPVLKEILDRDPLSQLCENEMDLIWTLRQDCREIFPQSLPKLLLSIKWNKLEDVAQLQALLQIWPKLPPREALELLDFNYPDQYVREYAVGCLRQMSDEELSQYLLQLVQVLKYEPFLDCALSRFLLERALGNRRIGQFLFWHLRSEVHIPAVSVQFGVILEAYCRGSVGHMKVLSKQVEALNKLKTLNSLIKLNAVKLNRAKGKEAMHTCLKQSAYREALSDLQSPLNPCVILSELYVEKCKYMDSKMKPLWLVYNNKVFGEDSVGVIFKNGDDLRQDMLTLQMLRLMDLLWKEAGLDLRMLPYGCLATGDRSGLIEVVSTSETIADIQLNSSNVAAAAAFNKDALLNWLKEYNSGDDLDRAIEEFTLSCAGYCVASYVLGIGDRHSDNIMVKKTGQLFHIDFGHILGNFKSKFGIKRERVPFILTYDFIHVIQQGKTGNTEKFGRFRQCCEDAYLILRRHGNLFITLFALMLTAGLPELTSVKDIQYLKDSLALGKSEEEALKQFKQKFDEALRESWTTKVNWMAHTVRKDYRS

[3] = target: T2, von Hippel-Lindau disease tumor suppressor/Phosphatidylinositol 4,5-bisphosphate 3-kinase catalytic subunit alpha isoform (Homo sapiens, UniProt P42336+P40337); experiment: PROTAC activity at PI3K-p110alpha/VHL in human MCF7/ADM cells assessed as reduction in PI3K-p110alpha level incubated for 24 hrs by Western blot analysis; format: cell-based; conditions: dose 0.04-50 µM
Target sequence in this assay (P40337 whole entry, looked up, canonical isoform): as the sequence (P40337 whole entry, looked up, canonical isoform) above
Target sequence in this assay (P42336 whole entry, looked up, canonical isoform): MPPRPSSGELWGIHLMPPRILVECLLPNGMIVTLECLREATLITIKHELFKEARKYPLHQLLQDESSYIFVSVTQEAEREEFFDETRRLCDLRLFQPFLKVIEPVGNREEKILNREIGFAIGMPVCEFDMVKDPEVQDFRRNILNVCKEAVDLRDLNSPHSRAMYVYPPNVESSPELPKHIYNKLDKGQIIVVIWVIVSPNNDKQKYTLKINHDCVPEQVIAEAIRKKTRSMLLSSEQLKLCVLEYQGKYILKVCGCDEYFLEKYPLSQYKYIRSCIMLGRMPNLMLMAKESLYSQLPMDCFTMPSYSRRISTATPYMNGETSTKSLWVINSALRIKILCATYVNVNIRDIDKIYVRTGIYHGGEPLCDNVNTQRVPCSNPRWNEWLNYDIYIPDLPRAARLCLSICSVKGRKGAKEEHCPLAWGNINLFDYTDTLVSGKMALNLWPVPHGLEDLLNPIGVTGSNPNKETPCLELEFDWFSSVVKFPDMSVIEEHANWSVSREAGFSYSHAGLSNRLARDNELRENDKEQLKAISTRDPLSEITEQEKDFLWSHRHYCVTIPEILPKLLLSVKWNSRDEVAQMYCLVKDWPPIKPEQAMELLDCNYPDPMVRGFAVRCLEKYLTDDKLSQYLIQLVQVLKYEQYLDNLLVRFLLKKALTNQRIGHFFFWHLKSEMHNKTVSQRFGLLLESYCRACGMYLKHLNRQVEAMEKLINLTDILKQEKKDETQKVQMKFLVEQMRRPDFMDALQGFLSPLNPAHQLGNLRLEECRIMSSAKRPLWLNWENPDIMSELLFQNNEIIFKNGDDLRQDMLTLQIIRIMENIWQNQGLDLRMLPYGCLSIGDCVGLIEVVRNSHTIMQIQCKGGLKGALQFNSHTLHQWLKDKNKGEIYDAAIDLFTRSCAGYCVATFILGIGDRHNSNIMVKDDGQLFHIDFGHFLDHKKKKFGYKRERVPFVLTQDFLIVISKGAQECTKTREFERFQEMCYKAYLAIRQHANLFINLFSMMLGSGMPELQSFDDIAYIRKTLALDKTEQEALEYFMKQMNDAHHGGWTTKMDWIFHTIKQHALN

[4] = target: T1, von Hippel-Lindau disease tumor suppressor/Phosphatidylinositol 4,5-bisphosphate 3-kinase catalytic subunit beta isoform; experiment: PROTAC activity at PI3K-p110beta/VHL in human A549/DDP cells assessed as reduction in PI3K-p110beta level at 25 uM incubated for 24 hrs by Western blot analysis relative to control; format: cell-based; set-up: scale not given: the % may be the effect or the level left
Target sequence in this assay (P40337 whole entry, looked up, canonical isoform): as the sequence (P40337 whole entry, looked up, canonical isoform) above
Target sequence in this assay (P42338 whole entry, looked up, canonical isoform): as the sequence (P42338 whole entry, looked up, canonical isoform) above

[5] = target: T2, von Hippel-Lindau disease tumor suppressor/Phosphatidylinositol 4,5-bisphosphate 3-kinase catalytic subunit alpha isoform; experiment: PROTAC activity at PI3K-p110alpha/VHL in human A549/DDP cells assessed as reduction in PI3K-p110alpha mRNA level at 25 uM measured for 24 hrs by qRT-PCR analysis; format: cell-based
Target sequence in this assay (P40337 whole entry, looked up, canonical isoform): as the sequence (P40337 whole entry, looked up, canonical isoform) above
Target sequence in this assay (P42336 whole entry, looked up, canonical isoform): as the sequence (P42336 whole entry, looked up, canonical isoform) above

[6] = target: T2, von Hippel-Lindau disease tumor suppressor/Phosphatidylinositol 4,5-bisphosphate 3-kinase catalytic subunit alpha isoform; experiment: PROTAC activity at PI3K-p110alpha/VHL in human MCF7/ADM cells assessed as induction of PI3K-p110alpha degradation incubated for 24 hrs by Western blot analysis; format: cell-based
Target sequence in this assay (P42336 whole entry, canonical isoform): as the sequence (P42336 whole entry, looked up, canonical isoform) above
Target sequence in this assay (P40337 whole entry, canonical isoform): as the sequence (P40337 whole entry, looked up, canonical isoform) above

[7] = target: T1, von Hippel-Lindau disease tumor suppressor/Phosphatidylinositol 4,5-bisphosphate 3-kinase catalytic subunit beta isoform; experiment: PROTAC activity at PI3K-p110beta/VHL in human MCF7/ADM cells assessed as induction of PI3K-p110beta degradation incubated for 24 hrs by Western blot analysis; format: cell-based
Target sequence in this assay (P42338 whole entry, canonical isoform): as the sequence (P42338 whole entry, looked up, canonical isoform) above
Target sequence in this assay (P40337 whole entry, canonical isoform): as the sequence (P40337 whole entry, looked up, canonical isoform) above

A549/CDDP [8] = experiment: Induction of apoptosis in human A549/DDP cells at 25 uM incubated for 24 hrs by Annexin V-FITC/PI staining based flow cytometry analysis (reference value: 4.27%); format: functional
A549/CDDP [9] = experiment: Induction of apoptosis in human A549/DDP cells at 25 uM incubated for 24 hrs in presence of TUDCA by Annexin V-FITC/PI staining based flow cytometry analysis (reference value: 4.27%); format: functional

| SMILES | Activity (MCF7/ADM) | Activity [1] [%] | Activity [2] | Activity [3] | Activity [4] [%] | Activity [5] | DC50 [6] [nM] | DC50 [7] [nM] | Activity (A549/CDDP [8]) [%] | Activity (A549/CDDP [9]) [%] |
| --- | --- | --- | --- | --- | --- | --- | --- | --- | --- | --- |
| Cc1cc(C(C)Nc2ccccc2C(=O)NCCOCCOCCC(=O)N[C@H](C(=O)N2C[C@H](O)C[C@H]2C(=O)NCc2ccc(-c3scnc3C)cc2)C(C)(C)C)c2nc(N3CCOCC3)cc(=O)n2c1 (stereo not given in full) | Active | 21.59 | Active | Dose-dependent-effect | – | – | – | – | – | – |
| Cc1cc(C(C)Nc2ccccc2C(=O)NCCCCCCC(=O)N[C@H](C(=O)N2C[C@H](O)C[C@H]2C(=O)NCc2ccc(-c3scnc3C)cc2)C(C)(C)C)c2nc(N3CCOCC3)cc(=O)n2c1 (stereo not given in full) | – | – | – | – | 88 | inactive | > 50000 | 1260 | 23.83 | 22.84 |

From ChEMBL document CHEMBL6134905, “Double Swords in One: Novel Selective PI3K/110β PROTAC Degraders for the Treatment of Multidrug-Resistant Cancer by Activating ERS and Inhibiting P-gp” (J Med Chem, 2025)
